Consider four molecules from patent US20240376096A1, “SMALL MOLECULE CYCLIN DEPENDENT KINASE 4/6 (CDK4/6) AND IKZF2 (HELIOS) DEGRADERS AND METHODS OF USE THEREOF” (DANA-FARBER CANCER INSTITUTE, INC., priority 2021, published 2024).

What all share (assay type): cell-based
Assay [1] has as its system Jurkat cells. The assay is described as follows: IL-2 levels by ELISA after TCR stimulation. Particulars: Jurkat cells pre-treated with 1 μM for 24 h, then TCR-stimulated for 18 h. The protocol: FIG. 4 is a graph of [IL2] for the indicated compounds in Jurkat cells upon TCR-stimulation with a-CD3/CD28.
Quantification of IL-2 levels by ELISA from Jurkat cells pre-treated with 1 μM of the indicated compounds for 24 h and then TCR-stimulated for 18 h. Results are shown in FIG. 4 as mean±SD (untreated, n=3; other conditions, n=4) (*p<0.05). […] The structure of 19 (N-(4-(4-(6-((6-acetyl-8-cyclopentyl-5-methyl-7-oxo-7,8-dihydropyrido[2,3-d]pyrimidin-2-yl)amino)pyridin-3-yl)piperazin-1-yl)butyl)-2-((2-(2,6-dioxopiperidin-3-yl)-1,3-dioxoisoindolin-4-yl)oxy)acetamide) is shown here: […]
In general terms: An ELISA detects its analyte on a solid surface through an enzyme-linked reagent.

The target of the next assay is T1, CDK6 (Homo sapiens, UniProt Q00534).
T1 construct: immunoblots from Jurkat cells treated with the indicated compounds; endogenous in cells; host or cells: Jurkat cells
T1 sequence (Q00534 whole entry): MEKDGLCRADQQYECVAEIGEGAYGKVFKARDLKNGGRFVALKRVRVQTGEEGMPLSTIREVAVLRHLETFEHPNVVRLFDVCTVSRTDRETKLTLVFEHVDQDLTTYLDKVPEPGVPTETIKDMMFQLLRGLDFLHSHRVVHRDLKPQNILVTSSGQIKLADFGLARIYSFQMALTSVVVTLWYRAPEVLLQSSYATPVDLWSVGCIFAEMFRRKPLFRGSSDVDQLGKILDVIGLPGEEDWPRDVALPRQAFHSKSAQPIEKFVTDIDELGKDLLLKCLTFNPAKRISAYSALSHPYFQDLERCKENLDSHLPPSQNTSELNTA
The experiment in a line: Immunoblot of CDK6 levels in Jurkat cells. Conditions: 1 μM; for degradation of CDK6 (immunoblot): 4 h; for protein abundance of CDK6 (immunoblot): 16 h. The protocol: (§1) FIG. 1A is a set of immunoblots of Jurkat cells treated with 1 μM of the indicated (DKY709 and Ia-1 to Ia-8) compounds for 4 hours, showing the levels of Ikaros, Helios, CDK4, CDK6, and tubulin for each compound.
(§2) FIG. 1B is a set of immunoblots of Jurkat cells treated with the Helios degrader DKY709, the triple degrader Ia-8, and the paired negative control compound 17 for 4 hours, showing the levels of Ikaros, Helios, CDK4, CDK6, and tubulin for each compound at 0.1 μM and 1 μM.
(§3) FIG. 2 is a set of immunoblots of Jurkat cells treated with the indicated compounds (palbociclib, DKY709, Ia-8, and 17) at 0.1 μM and 1 μM for 16 hours.
(§4) The structure of DKY709 (3-(5-(1-benzylpiperidin-4-yl)-1-oxoisoindolin-2-yl)piperidine-2,6-dione) is shown here: […]
On the technique in general: In western blotting, separated proteins are transferred to a membrane and probed.

The target of another assay is T2, Helios (Homo sapiens, UniProt Q96SW2+Q9UKS7).
T2 construct: immunoblots from Jurkat cells treated with the indicated compounds; endogenous in cells; host or cells: Jurkat cells
T2 sequence (Q9UKS7 whole entry): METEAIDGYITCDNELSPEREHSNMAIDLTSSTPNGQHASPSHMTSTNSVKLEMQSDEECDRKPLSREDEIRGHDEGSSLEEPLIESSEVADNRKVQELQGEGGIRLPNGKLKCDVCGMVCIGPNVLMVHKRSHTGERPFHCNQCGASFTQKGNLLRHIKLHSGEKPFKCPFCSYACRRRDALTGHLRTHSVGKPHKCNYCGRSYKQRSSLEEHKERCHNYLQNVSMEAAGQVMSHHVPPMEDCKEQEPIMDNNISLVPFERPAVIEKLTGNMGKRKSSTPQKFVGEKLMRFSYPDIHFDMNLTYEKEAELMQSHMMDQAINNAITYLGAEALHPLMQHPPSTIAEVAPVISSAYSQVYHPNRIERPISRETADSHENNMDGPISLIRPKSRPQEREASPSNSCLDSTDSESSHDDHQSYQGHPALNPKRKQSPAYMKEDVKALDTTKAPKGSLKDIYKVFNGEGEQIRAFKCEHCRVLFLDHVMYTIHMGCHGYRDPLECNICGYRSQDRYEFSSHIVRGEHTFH
T2 sequence (Q96SW2 whole entry): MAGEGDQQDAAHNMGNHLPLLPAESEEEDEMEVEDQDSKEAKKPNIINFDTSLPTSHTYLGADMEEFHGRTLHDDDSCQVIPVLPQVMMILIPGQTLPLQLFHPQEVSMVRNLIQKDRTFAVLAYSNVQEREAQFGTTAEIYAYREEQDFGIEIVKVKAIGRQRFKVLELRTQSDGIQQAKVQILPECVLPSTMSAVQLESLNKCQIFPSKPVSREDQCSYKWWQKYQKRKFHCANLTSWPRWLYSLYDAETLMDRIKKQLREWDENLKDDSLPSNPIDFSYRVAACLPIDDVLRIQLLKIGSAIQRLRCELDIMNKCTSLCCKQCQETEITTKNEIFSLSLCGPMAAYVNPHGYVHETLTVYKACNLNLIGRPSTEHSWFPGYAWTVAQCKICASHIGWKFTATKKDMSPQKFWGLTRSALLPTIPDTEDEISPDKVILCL
T2 sequence (Q16531 whole entry partner): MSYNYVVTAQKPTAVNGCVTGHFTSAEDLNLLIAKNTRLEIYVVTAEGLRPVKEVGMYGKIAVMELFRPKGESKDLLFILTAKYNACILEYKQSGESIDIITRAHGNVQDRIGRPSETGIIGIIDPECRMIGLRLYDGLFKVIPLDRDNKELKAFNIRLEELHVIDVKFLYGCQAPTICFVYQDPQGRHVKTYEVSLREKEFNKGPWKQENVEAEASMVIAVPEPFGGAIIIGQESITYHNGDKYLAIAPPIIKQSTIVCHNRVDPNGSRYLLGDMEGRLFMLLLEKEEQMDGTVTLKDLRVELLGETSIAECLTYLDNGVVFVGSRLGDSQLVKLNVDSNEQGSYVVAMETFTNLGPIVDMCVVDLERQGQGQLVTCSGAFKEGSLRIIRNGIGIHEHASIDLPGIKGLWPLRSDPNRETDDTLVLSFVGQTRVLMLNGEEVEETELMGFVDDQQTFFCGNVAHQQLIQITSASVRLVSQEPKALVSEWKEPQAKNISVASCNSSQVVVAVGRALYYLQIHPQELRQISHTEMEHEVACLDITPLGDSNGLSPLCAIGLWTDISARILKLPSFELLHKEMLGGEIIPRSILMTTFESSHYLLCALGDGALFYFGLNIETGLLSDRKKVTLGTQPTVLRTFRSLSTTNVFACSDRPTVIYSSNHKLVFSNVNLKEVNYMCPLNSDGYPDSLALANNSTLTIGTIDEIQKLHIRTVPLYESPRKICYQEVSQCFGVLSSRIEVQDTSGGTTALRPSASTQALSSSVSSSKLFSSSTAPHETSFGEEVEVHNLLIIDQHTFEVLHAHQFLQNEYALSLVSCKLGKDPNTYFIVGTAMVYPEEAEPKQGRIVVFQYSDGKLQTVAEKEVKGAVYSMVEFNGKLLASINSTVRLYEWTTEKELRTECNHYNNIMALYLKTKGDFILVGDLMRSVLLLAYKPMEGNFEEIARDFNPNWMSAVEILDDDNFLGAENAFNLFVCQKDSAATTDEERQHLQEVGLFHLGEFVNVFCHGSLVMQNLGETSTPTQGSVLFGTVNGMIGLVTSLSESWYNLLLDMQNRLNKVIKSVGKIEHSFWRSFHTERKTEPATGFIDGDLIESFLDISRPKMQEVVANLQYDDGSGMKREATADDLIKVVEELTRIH
The assay is described as follows: Immunoblot of Helios levels in Jurkat cells. Conditions: 1 μM; for degradation of Helios (immunoblot): 4 h; for protein abundance of Helios (immunoblot): 16 h. On the procedure:
as §1, §2, §3, §4

The next assay has as its system phosphorylated Rb. The experiment in a line: Immunoblot of phosphorylated Rb in Jurkat cells. Conditions: 1 μM, 16 h. The protocol:
as §3

Another assay deals with T3, CDK4 (Homo sapiens, UniProt P11802).
T3 construct: immunoblots from Jurkat cells treated with the indicated compounds; endogenous in cells; host or cells: Jurkat cells
T3 sequence (P11802 whole entry): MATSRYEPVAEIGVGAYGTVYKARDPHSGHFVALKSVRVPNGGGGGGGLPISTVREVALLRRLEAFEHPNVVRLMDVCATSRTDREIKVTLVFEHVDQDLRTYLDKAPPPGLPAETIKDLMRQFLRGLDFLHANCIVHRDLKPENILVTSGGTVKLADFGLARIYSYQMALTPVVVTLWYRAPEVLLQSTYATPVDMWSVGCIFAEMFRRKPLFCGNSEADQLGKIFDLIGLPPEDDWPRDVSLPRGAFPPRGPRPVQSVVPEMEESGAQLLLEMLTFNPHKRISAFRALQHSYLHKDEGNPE
The assay is described as follows: Immunoblot of CDK4 levels in Jurkat cells. Particulars: 1 μM; for degradation of CDK4 (immunoblot): 4 h; for protein abundance of CDK4 (immunoblot): 16 h. The protocol: as §1, §2, §3, §4

Assay [2] concerns Jurkat cells. The experiment in a line: Propidium iodide staining for DNA content (G1 arrest). Conditions: 100 nM, 24 h. The protocol:
FIG. 3A is a set of histograms and the quantification of the DNA content using propidium iodide (PI) staining after treatment of Jurkat cells with the indicated compounds (palbociclib, DKY709, 18, Ia-6, 16, Ia-8, and 17) at 100 nM for 24 h.
The structure of 18 (N-(4-(4-(6-((6-acetyl-8-cyclopentyl-5-methyl-7-oxo-7,8-dihydropyrido[2,3-d]pyrimidin-2-yl)amino)pyridin-3-yl)piperazin-1-yl)butyl)-2-((2-(1-methyl-2,6-dioxopiperidin-3-yl)-1,3-dioxoisoindolin-4-yl)amino)acetamide) is shown here: […]

Assay [3] deals with Jurkat cells. The assay is described as follows: Cell proliferation quantified by CellTiter-Glo. Conditions: Homo sapiens, 72 h, dose curve, 3 d, read-out: anti-proliferative activity. From the text: FIG. 3B is a graph of normalized luminescence versus concentration (log[inhibitor], M) of the indicated compounds (palbociclib, Ia-8, and 17) assessed by CellTiterGlo after treatment of Jurkat cells for 3 d.
Background: ATP-based viability assays read luminescence as a measure of living cells.

In another assay the target is T4, Ikaros (Homo sapiens, UniProt Q13422).
T4 construct: endogenous in cells; host or cells: Jurkat cells
T4 sequence (Q96SW2 whole entry partner): as the sequence (Q96SW2 whole entry) above
T4 sequence (Q16531 whole entry partner): as the sequence (Q16531 whole entry partner) above
T4 sequence (Q13422 whole entry): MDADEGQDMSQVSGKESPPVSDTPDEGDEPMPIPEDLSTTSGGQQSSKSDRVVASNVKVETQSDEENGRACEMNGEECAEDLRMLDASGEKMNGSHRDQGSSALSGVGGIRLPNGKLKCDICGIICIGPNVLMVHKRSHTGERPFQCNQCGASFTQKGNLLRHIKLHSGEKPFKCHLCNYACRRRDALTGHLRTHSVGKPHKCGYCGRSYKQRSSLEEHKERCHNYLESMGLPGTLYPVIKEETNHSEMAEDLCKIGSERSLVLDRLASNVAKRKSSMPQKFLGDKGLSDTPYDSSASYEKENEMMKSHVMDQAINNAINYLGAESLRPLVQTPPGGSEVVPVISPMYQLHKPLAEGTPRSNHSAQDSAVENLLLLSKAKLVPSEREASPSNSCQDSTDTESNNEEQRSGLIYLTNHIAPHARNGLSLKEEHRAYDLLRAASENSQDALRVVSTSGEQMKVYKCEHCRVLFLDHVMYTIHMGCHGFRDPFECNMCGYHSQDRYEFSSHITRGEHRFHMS
The experiment in a line: Immunoblot of Ikaros levels in Jurkat cells. Conditions: 1 μM, 4 h. The protocol:
as §1, §2, §4

Consider `O=C1CCC(N2Cc3cc(C4CCN(Cc5ccccc5)CC4)ccc3C2=O)C(=O)N1` (centres unmarked) [DKY709, 3-(5-(1-benzylpiperidin-4-yl)-1-oxoisoindolin-2-yl)piperidine-2,6-dione, reference compound], for which, in the assay on Jurkat cells [1], the IL-2 secretion result was “elevated IL-2 secretion, although it did not reach statistical significance”. In addition, the “degradation of CDK6 (immunoblot)” value on CDK6 is “did not affect CDK4 or CDK6 abundance”. For the same molecule, at Helios, the “degradation of Helios (immunoblot)” value is on record as “only induced degradation of Helios” and the “protein abundance of Helios (immunoblot)” value is “induced Helios degradation”. For the same molecule, the “levels of phosphorylated Rb (immunoblot)” value in the assay with phosphorylated Rb was “without affecting the levels of phosphorylated Rb”. The “degradation of CDK4 (immunoblot)” value at CDK4 was “did not affect CDK4 or CDK6 abundance”. In addition, in the assay with Jurkat cells [2], the “induction of G1 arrest” value is “but not DKY709, induced G1 arrest”.
Turning to `CC(=O)c1c(C)c2cnc(Nc3ccc(N4CCN(CCOc5ccc(CN6CCC(c7ccc8c(c7)CN(C7CCC(=O)NC7=O)C8=O)CC6)cc5)CC4)cn3)nc2n(C2CCCC2)c1=O` (centres unmarked) [Ia-8, 3-(5-(1-(4-(2-(4-(6-((6-acetyl-8-cyclopentyl-5-methyl-7-oxo-7,8-dihydropyrido[2,3-d]pyrimidin-2-yl)amino)pyridin-3-yl)piperazin-1-yl)ethoxy)benzyl)piperidin-4-yl)-1-oxoisoindolin-2-yl)piperidine-2,6-dione], the IL-2 secretion result in the assay with Jurkat cells [1] is recorded as “induced elevated levels of IL2 that were comparable to that of 18”. The IC50 with Jurkat cells [3] stood at 166 nM. Further, on CDK6, the “degradation of CDK6 (immunoblot)” value was “induced the degradation of CDK4, CDK6, and Helios”; the “protein abundance of CDK6 (immunoblot)” value is “induced the triple degradation of Helios, CDK4, and CDK6”. For the same molecule, on Helios, the “degradation of Helios (immunoblot)” value was “induced the degradation of CDK4, CDK6, and Helios”; the “protein abundance of Helios (immunoblot)” value is “induced the triple degradation of Helios, CDK4, and CDK6”. In addition, in the assay on phosphorylated Rb, the “levels of phosphorylated Rb (immunoblot)” value is on record as “reduced the levels of phosphorylated Rb”. For the same molecule, the “degradation of Ikaros (immunoblot)” value on Ikaros is “but not Ikaros”. Further, at CDK4, the “degradation of CDK4 (immunoblot)” value was “induced the degradation of CDK4, CDK6, and Helios”; the “protein abundance of CDK4 (immunoblot)” value was “induced the triple degradation of Helios, CDK4, and CDK6”. The “induction of G1 arrest” value with Jurkat cells [2] was “induced G1 arrest”.
On to `Nc1cccc2c1CN(C1CCC(=O)NC1=O)C2=O` (centres unmarked) [Lenalidomide, reference compound], for which the IL-2 secretion entry in the assay on Jurkat cells [1] is “elevated IL-2 secretion, although it did not reach statistical significance”.
Turning to `CC(=O)c1c(C)c2cnc(Nc3ccc(N4CCN(CCOc5ccc(CN6CCC(c7ccc8c(c7)CN(C7CCC(=O)N(C)C7=O)C8=O)CC6)cc5)CC4)cn3)nc2n(C2CCCC2)c1=O` (centres unmarked) [compound 17, 3-(5-(1-(4-(2-(4-(6-((6-acetyl-8-cyclopentyl-5-methyl-7-oxo-7,8-dihydropyrido[2,3-d]pyrimidin-2-yl)amino)pyridin-3-yl)piperazin-1-yl)ethoxy)benzyl)piperidin-4-yl)-1-oxoisoindolin-2-yl)-1-methylpiperidine-2,6-dione], in the assay with Jurkat cells [1], the IL-2 secretion result is recorded as “had activity similar to that of palbociclib”. The IC50 in the assay with Jurkat cells [3] is 244 nM. Moreover, on CDK6, the “degradation of CDK6 (immunoblot)” value is “had no degradation activity” and the “protein abundance of CDK6 (immunoblot)” value is given as “had minimal effects”. Moreover, at Helios, the “degradation of Helios (immunoblot)” value is reported as “had no degradation activity” and the “protein abundance of Helios (immunoblot)” value was “had minimal effects”. In addition, in the assay on phosphorylated Rb, the “levels of phosphorylated Rb (immunoblot)” value is on record as “had minimal effects”. Further, on CDK4, the “degradation of CDK4 (immunoblot)” value is on record as “had no degradation activity” and the “protein abundance of CDK4 (immunoblot)” value was “had minimal effects”. The “induction of G1 arrest” value in the assay with Jurkat cells [2] is listed as “did not”.
